According to patent US12497637B1, “Stabilization of tryptamines by denaturing enzymes, optimizing ionization states, and controlling confounding variables” (Convergent Health Sciences LLC, priority 2025, dated 2025):

Tests used:
[1] = cited from earlier work
[2] = Spontaneous dephosphorylation of phosphoryloxytryptamines in 100 millimolar phosphate buffers, 85 degrees Celsius, one hour, HPLC at 220 nanometers
laccase enzyme = assay: Colorimetric assay with a syringaldazine substrate for residual laccase enzyme activity; format: biochemical, Psilocybe cubensis; settings: relative to the water control
Source text: The denaturation of relevant laccase enzymes may be assessed, for example, by performing a colorimetric assay with a laccase enzyme substrate such as syringaldazine or 2,2′-azino-bis(3-ethylbenzothiazoline-6-sulfonate) (ABTS). Syringaldazine comprises an aromatic structure with pendant hydroxyl groups, which is chemically similar to the indole of a hydroxytryptamine, and ABTS comprises a benzothiazoline, which is chemically similar to the indole of tryptamines generally. Colorimetric assays performed with a syringaldazine or ABTS substrate therefore provide suitable methods to assess laccase activity that are relevant to this disclosure.
(§1) 20 milliliters of 6 molar guanidinium chloride in distilled, deionized water and buffered to a pH of 6.0 with 50 millimolar phosphate buffer is added to each of three opaque 50-milliliter polypropylene centrifuge tubes. 20 milliliters of 8 molar urea in distilled, deionized water and buffered to a pH of 6.0 with 50 millimolar phosphate buffer is added to each of three opaque 50-milliliter polypropylene centrifuge tubes. 20 milliliters of 4 molar ammonium sulfate in distilled, deionized water and buffered to a pH of 6.0 with 50 millimolar MES buffer is added to each of three opaque 50-milliliter polypropylene centrifuge tubes. 20 milliliters of 2 percent sodium dodecyl sulfate (w/v) in distilled, deionized water and buffered to a pH of 6.0 with 50 millimolar phosphate buffer is added to each of three opaque 50-milliliter polypropylene centrifuge tubes. 20 milliliters of 1 percent Triton X-100 (v/v) in distilled, deionized water and buffered to a pH of 6.0 with 50 millimolar phosphate buffer is added to each of three opaque 50-milliliter polypropylene centrifuge tubes. 20 milliliters of 2 percent octyl glucoside (w/v) in distilled, deionized water and buffered to a pH of 6.0 with 50 millimolar phosphate buffer is added to each of three opaque 50-milliliter polypropylene centrifuge tubes. 20 milliliters of distilled, deionized water is buffered to a pH of 6.0 with 50 millimolar phosphate buffer and added to each of three opaque 50-milliliter polypropylene centrifuge tubes. Each of the centrifuge tubes is placed on ice.
(§2) The stipes of three freshly-harvested Psilocybe cubensis fruiting bodies are each cut into seven sections of approximately 1 gram each, weighed, and immediately placed into one of the polypropylene tubes such that a section of each stipe is placed in each of the guanidinium, urea, ammonium sulfate, sodium dodecyl sulfate, Triton X-100, and octyl glucoside solutions as well as the water control. Each of the samples is homogenized and then sonicated within the polypropylene tubes. The polypropylene tubes are then loaded onto an orbital shaker in a cold room at 4 degrees Celsius and mixed at 450 revolutions per minute for four hours. After mixing, the samples are placed on ice.
(§3) The samples are centrifuged, and the supernatants are analyzed by HPLC as described in Example 1. The molecular weights of the analytes are determined by electrospray ionization mass spectroscopy (ESI-MS) operating in positive ion mode. The supernatants are also used for a colorimetric assay with a para-nitrophenyl phosphate substrate to identify residual phosphatase enzyme activity and for a colorimetric assay with a syringaldazine substrate to identify any residual laccase enzyme activity.

phosphatase enzyme = assay: Colorimetric assay with a para-nitrophenyl phosphate substrate for residual phosphatase enzyme activity; format: biochemical, Psilocybe cubensis; settings: relative to the water control
Source text: The denaturation of relevant phosphatase enzymes may be assessed, for example, by performing a colorimetric assay with a para-nitrophenyl phosphate substrate. Para-nitrophenyl phosphate comprises a phosphorylated aromatic, which is chemically similar to the phosphorylated indole of a phosphoryloxytryptamine. Colorimetric assays performed with a para-nitrophenyl phosphate substrate therefore provide suitable methods to assess […] that are relevant to this disclosure.
as §1, §2, §3

[3] = cited from earlier work; remark: listed apart in the source
[4] = pH of 2.0 relative to pH of 3.0
[5] = pH of 7.0 relative to pH of 6.0
[6] = pH of 3.0 relative to pH of 2.0
[7] = pH of 6.0 relative to pH of 7.0

OCCc1c[nH]c2ccccc12 [tryptophol]
solubility in water [1]: insoluble in water

CNCCc1c[nH]c2cccc(O)c12 [norpsilocin, 3-[2-(methylamino)ethyl]-1H-indol-4-ol]
absorbance detected for the hydroxytryptamine (dephosphorylation product) [2, 4]: greater absorbance | absorbance detected for the hydroxytryptamine (dephosphorylation product) [2, 5]: greater absorbance

CCCCCCCCCCCCOS(=O)(=O)[O-].[Na+] [sodium dodecyl sulfate]
laccase enzyme activity in the colorimetric assay (laccase enzyme): significantly less laccase enzyme activity | phosphatase enzyme activity in the colorimetric assay (phosphatase enzyme): significantly less phosphatase enzyme activity

Chitin
solubility in water [1]: insoluble in water

C[N+](C)(C)CCc1c[nH]c2cccc(O)c12 [4-hydroxy-TMT, [2-(4-hydroxy-1H-indol-3-yl)ethyl]-trimethylazanium]
absorbance detected for the hydroxytryptamine (dephosphorylation product) [2, 4]: greater absorbance | absorbance detected for the hydroxytryptamine (dephosphorylation product) [2, 5]: greater absorbance

O=C(O)Cc1c[nH]c2ccccc12 [Indole-3-acetic acid, indole-3-acetic acid]
solubility in water [1]: insoluble in water

polyethylene glycol 4-(2,4,4-trimethylpent-2-yl)phenyl ether [Triton X-100]
laccase enzyme activity in the colorimetric assay (laccase enzyme): significantly less laccase enzyme activity | phosphatase enzyme activity in the colorimetric assay (phosphatase enzyme): significantly less phosphatase enzyme activity

N.N.O=S(=O)(O)O [ammonium sulfate]
laccase enzyme activity in the colorimetric assay (laccase enzyme): significantly less laccase enzyme activity | phosphatase enzyme activity in the colorimetric assay (phosphatase enzyme): significantly less phosphatase enzyme activity

NCCc1c[nH]c2cccc(O)c12 [4-HT, 3-(2-aminoethyl)-1H-indol-4-ol]
absorbance detected for the hydroxytryptamine (dephosphorylation product) [2, 4]: greater absorbance | absorbance detected for the hydroxytryptamine (dephosphorylation product) [2, 5]: greater absorbance

C[N+](C)(C)CCc1c[nH]c2cccc(OP(=O)(O)O)c12 [aeruginascin, [2-(4-phosphonooxy-1H-indol-3-yl)ethyl]-trimethylazanium]
absorbance detected for the phosphoryloxytryptamine [2, 6]: Greater absorbance | absorbance detected for the phosphoryloxytryptamine [2, 7]: Greater absorbance

CN(C)CCc1c[nH]c2cccc(OP(=O)(O)O)c12 [psilocybin]
pKa of the azanium of psilocybin ([3]; conjugate acid of the amino): about 10.4 | pKa of the dihydrogen phosphate of psilocybin (lowest pKa) ([3]; first phosphate pKa): about 1.3

NC(N)=O [urea]
laccase enzyme activity in the colorimetric assay (laccase enzyme): significantly less laccase enzyme activity | phosphatase enzyme activity in the colorimetric assay (phosphatase enzyme): significantly less phosphatase enzyme activity

CN(C)CCc1c[nH]c2cccc(O)c12 [psilocin, 3-[2-(dimethylamino)ethyl]-1H-indol-4-ol]
absorbance detected for the hydroxytryptamine (dephosphorylation product) [2, 4]: greater absorbance | absorbance detected for the hydroxytryptamine (dephosphorylation product) [2, 5]: greater absorbance

CCCCCCCCO[C@@H]1O[C@H](CO)[C@@H](O)[C@H](O)[C@H]1O [octyl glucoside, octyl β-D-glucopyranoside]
laccase enzyme activity in the colorimetric assay (laccase enzyme): significantly less laccase enzyme activity | phosphatase enzyme activity in the colorimetric assay (phosphatase enzyme): significantly less phosphatase enzyme activity

CNCCc1c[nH]c2cccc(OP(=O)(O)O)c12 [baeocystin, [2-(4-phosphonooxy-1H-indol-3-yl)ethyl]-methylazanium]
absorbance detected for the phosphoryloxytryptamine [2, 6]: Greater absorbance | absorbance detected for the phosphoryloxytryptamine [2, 7]: Greater absorbance

NCCc1c[nH]c2cccc(OP(=O)(O)O)c12 [norbaeocystin, 2-(4-phosphonooxy-1H-indol-3-yl)ethylazanium]
absorbance detected for the phosphoryloxytryptamine [2, 6]: Greater absorbance | absorbance detected for the phosphoryloxytryptamine [2, 7]: Greater absorbance

Cl.N=C(N)N [guanidinium, guanidinium chloride]
laccase enzyme activity in the colorimetric assay (laccase enzyme): significantly less laccase enzyme activity | phosphatase enzyme activity in the colorimetric assay (phosphatase enzyme): significantly less phosphatase enzyme activity
